How the values were obtained:
[1] = system: Salmon Alfa Virus (SAV); assay: Mortality in Atlantic salmon fry following SAV challenge by cohabitation (Pancreas Disease); assay type: in vivo; details: for survival compared to control diet fed fish / Relative Percent Survival (RPS): Study 2, SAV challenge; for end mortality compared to control: Study 3, all three SAV challenge trials
Method: (§1) The first study evaluated dietary alpha-lipoic acid (LA) at 500 mg/kg compared to control basal diet fed fish. Pre-feeding experimental diets for ˜5 weeks, growing from ˜0.2 g to ˜0.5 g in 4 replicate tanks per diet. Water temperature at 12° C.±1° C. Min. 30 fish per diet (tank). Disease challenge by cohabitation with fish infected with Salmon Alfa Virus (SAV).
(§2) This was intended to transmit the infection to the test groups leading to clinical Pancreas Disease (PD). The challenge lasted for 9.5 weeks (˜2 g), mortality recorded daily.
The second study evaluated dietary alpha-lipoic acid at 3 doses 125, 250 and 500 mg/kg compared to control basal diet fed fish for resistance to virus disease (PD). The experiment was carried out as described for the first study.
In this study three separate virus challenge trials evaluated dietary alpha-lipoic acid at 3 doses 250, 500 and 1000 mg/kg compared to control basal diet fed fish for resistance to virus disease (PD). The experiment was carried out as described for the first study.

[2] = system: IPN; assay: Mortality in Atlantic salmon following IPN challenge; assay type: in vivo; details: A. salmon
Method: as §1, §2
The fourth study evaluated dietary alpha-lipoic acid at 3 doses 500, 750 and 1000 mg/kg compared to control basal diet fed fish for resistance to virus disease (IPN). The experiment was carried out as described for the first study.

[3] = system: IPN; assay: Performance (growth reduction) of Atlantic salmon following IPN challenge; assay type: in vivo
Method: This study evaluated dietary alpha-lipoic acid at 3 doses 500, 750 and 1000 mg/kg compared to control basal diet fed fish for performance after disease (IPN) challenge in atlantic salmon and was carried out in succession of the fifth study by weighting the fish and comparing the challenged LA and control fed fish with the unchallenged control fed fish.

[4] = system: phagocytes; assay: Oxidative burst of phagocytes from rainbow trout fed LA; assay type: cell-based; details: rainbow trout fed 125, 250 and 500 mg/kg for 4 weeks; any treatment group vs control
Method: (§3) Rainbow trout were fed for 4 weeks with graded levels of LA (125, 250 and 500 mg/kg) compared to basal control diet fed fish. A range of functional immune assays of tissues/cells obtained at the end of the feeding period were conducted to investigate the possible mode of action observed in the disease challenge studies.
The capacity of Oxidative burst of phagocytes was assayed to assess anti-oxidation or pro-oxidation activity, as widely reported for use of LA (Kutter et al., 2014).

[5] = system: lymphocytes; assay: Apoptosis of lymphocytes from rainbow trout fed LA; assay type: cell-based
Method: as §3
The apoptosis pathway (programmed cell death) was investigated by assaying the ability of lymphocytes to prevent apoptosis occurring following incubation with Campto, a chemical stimulator of apoptosis. […] This level of reduction in apoptosis is quite remarkable.

[6] = Feed conversion ratio (FCR) in rainbow trout; assay type: in vivo; details: for (Cumulative) Feed conversion ratio (FCR), Feed as fed basis (kg)/weight gain (kg), Mean: rainbow trout
Method: This study evaluated dietary alpha-lipoic acid at 3 doses 250, 500 and 1000 mg/kg compared to control basal diet fed fish for feed conversion ratio. Rainbow trout with an initial weight around 50 g were fed for ˜6 weeks with graded levels of LA compared to basal control diet fed fish in 4 replicate tanks per diet with 50 fish per tank. The fish were fed automatically and daily with an excess of experimental diets with regard to feeding instructions for control basal diet and weighted every two weeks. Excess feed was removed daily.

[7] = system: Noda Virus (VNN); assay: Mortality in Sea Bass fry following VNN (Noda virus) challenge by cohabitation; assay type: in vivo
Method: The seventh study evaluated dietary alpha-lipoic acid (LA) at 250, 500 and 750 mg/kg compared to control basal diet fed fish in Sea Bass fry. Pre-feeding experimental diets for 5-6 weeks, growing from ˜0.7 g to ˜1.4 g. Water temperature at 25° C. 133 fish per diet (tank). Disease challenge by cohabitation with fish infected with Noda Virus (VNN). This was intended to transmit the infection to the test groups. Mortality was recorded daily.

[8] = system: white spot syndrome virus (WSSV); assay: Mortality in shrimp following WSSV challenge; assay type: in vivo
Method: The fourth study evaluated dietary alpha-lipoic acid at 650 mg/kg compared to control basal diet fed shrimp for resistance to white spot syndrome virus disease (WSSV). The experiment was carried out under standard conditions for shrimp. Pre-feeding experimental diets for ˜4 weeks. Mortality was recorded daily.

SMILES: O=C(O)CCCCC1CCSS1 (stereo not drawn) [alpha-lipoic acid]
- relative percent survival (RPS) compared to control diet ([1]; Study 1, 500 mg/kg feed, A. salmon fry, SAV challenge 9.5 weeks): 63%
- survival compared to control diet fed fish ([1]; 125 mg/kg): no observed effect
- survival compared to control diet fed fish ([1]; 250 mg/kg): tendency for improved survival but this was not statistically significant
- Relative Percent Survival (RPS) ([1]; 125 ppm in diet vs control, A. salmon fry): −17%
- Relative Percent Survival (RPS) ([1]; 250 ppm in diet vs control, A. salmon fry): 8%
- Relative Percent Survival (RPS) ([1]; 500 ppm in diet vs control, A. salmon fry): 34%
- Relative Percent Survival (RPS) ([1]; 500 ppm in diet vs control, A. salmon fry, listed as LA): 34%
- end mortality compared to control ([1]; high dose 1000 mg/kg): significantly reduced
- end mortality compared to control ([1]; medium dose 500 mg/kg): significantly reduced
- RPS ([2]; 500 ppm in diet vs control): 7.1%
- RPS ([2]; 500 ppm in diet vs control, listed as LA): 7%
- Mean Survival ([2]; 500 ppm in diet): 62.0%
- Mean mortality ([2]; 500 ppm in diet): 38.0%
- RPS ([2]; 750 ppm in diet vs control): 27.6%
- RPS ([2]; 750 ppm in diet vs control, listed as LA): 28%
- Mean Survival ([2]; 750 ppm in diet): 70.4%
- Mean mortality ([2]; 750 ppm in diet): 29.6%
- RPS ([2]; 1000 ppm in diet vs control): −1.0%
- RPS ([2]; 1000 ppm in diet vs control, listed as LA): −1%
- Mean Survival ([2]; 1000 ppm in diet): 58.7%
- Mean mortality ([2]; 1000 ppm in diet): 41.3%
- performance compared to challenged control diet fed fish ([3]; 500 mg/kg): performed better
- performance compared to challenged control diet fed fish ([3]; 750 mg/kg): significantly better performance
- performance compared to challenged control diet fed fish ([3]; 1000 mg/kg): did not perform significantly better
- extracellular or intracellular oxidative burst of phagocytes [4]: no significant difference
- basal apoptosis activity of lymphocytes ([5]; no Campto used, LA treatment groups, not significant): trend for lower basal apoptosis activity
- apoptotic cells (lymphocytes) after incubation with Campto ([5]; rainbow trout fed 500 mg/kg for 4 weeks): significant reduction
- reduction of apoptotic cells (lymphocytes) after incubation with Campto ([5]; rainbow trout fed graded levels 125, 250 and 500 mg/kg for 4 weeks): clear dose response
- (Cumulative) Feed conversion ratio (FCR), Feed as fed basis (kg)/weight gain (kg), Mean ([6]; AL 250, period 0-15 days): 0.65
- (Cumulative) Feed conversion ratio (FCR), Feed as fed basis (kg)/weight gain (kg), Mean ([6]; AL 250, period 0-30 days): 0.67
- (Cumulative) Feed conversion ratio (FCR), Feed as fed basis (kg)/weight gain (kg), Mean ([6]; AL 250, period 0-44 days): 0.67
- (Cumulative) Feed conversion ratio (FCR), Feed as fed basis (kg)/weight gain (kg), Mean ([6]; AL 500, period 0-15 days): 0.66
- (Cumulative) Feed conversion ratio (FCR), Feed as fed basis (kg)/weight gain (kg), Mean ([6]; AL 500, period 0-30 days): 0.67
- (Cumulative) Feed conversion ratio (FCR), Feed as fed basis (kg)/weight gain (kg), Mean ([6]; AL 500, period 0-44 days): 0.68
- (Cumulative) Feed conversion ratio (FCR), Feed as fed basis (kg)/weight gain (kg), Mean ([6]; AL 1000, period 0-15 days): 0.65
- (Cumulative) Feed conversion ratio (FCR), Feed as fed basis (kg)/weight gain (kg), Mean ([6]; AL 1000, period 0-30 days): 0.67
- (Cumulative) Feed conversion ratio (FCR), Feed as fed basis (kg)/weight gain (kg), Mean ([6]; AL 1000, period 0-44 days): 0.68
- feed conversion ratios compared to control diet fed fish ([6]; rainbow trout fed 250, 500 and 1000 mg/kg for ~6 weeks): improved
- Mean Survival ([7]; 250 ppm in diet): 84.2%
- Mean mortality ([7]; 250 ppm in diet): 15.8%
- RPS ([7]; 250 ppm in diet vs control): 59.6%
- RPS ([7]; 250 ppm in diet vs control, listed as lipoic acid): 60%
- Mean Survival ([7]; 500 ppm in diet): 86.7%
- Mean mortality ([7]; 500 ppm in diet): 13.3%
- RPS ([7]; 500 ppm in diet vs control): 66.0%
- RPS ([7]; 500 ppm in diet vs control, listed as lipoic acid): 66%
- Mean Survival ([7]; 750 ppm in diet): 78.3%
- Mean mortality ([7]; 750 ppm in diet): 21.7%
- RPS ([7]; 750 ppm in diet vs control): 44.7%
- RPS ([7]; 750 ppm in diet vs control, listed as lipoic acid): 45%
- Mean Survival ([8]; 650 ppm in diet): 30.0%
- Mean mortality ([8]; 650 ppm in diet): 70.0%
- RPS ([8]; 650 ppm in diet vs control): 8.7%
